# How the values were obtained:
# [1] = test system: membrane translocation of KRS; test: Laminin-dependent membrane translocation of KRS and 67LR, cell fractionation and Western blotting; format: cell-based; details: A549 cells; laminin 10 ug/ml, time course; FIG. 7
# Method: (§1) In FIG. 7, A549 cells were treated with laminin (10 ug/ml) and the level of 67LR, 37LRP and KRS was determined by Western blotting at the indicated times. Hsp90 and Cadherin were used as markers for cytoplasm and membrane, respectively. In FIG. 8, A549 cells untreated or treated with laminin for 1 h were subjected to immunofluorescence staining with anti-67LR (MLuC5, Santacruz, sc-59732) (red) and -KRS antibodies (green). In FIG. 9, A549 cells were treated with U73122 (U), staurosporin (ST) and LY294002 (LY) that inhibit PLC-gamma, PKC and PI3K, respectively, for 3 hr, then with laminin for 1 hr and checked how these kinase inhibitors would affect the membrane and cytoplasmic level of 67LR and KRS. In FIG. 10, A549 cells were transfected with Myc-KRS and incubated for 24 h. The cells were treated with the indicated chemicals and then with laminin as above. Myc-KRS was immunoprecipitated, and immunoblotted with anti-p-Thr, -Ser, and -Tyr antibodies. In FIG. 11, A549 cells were transfected with Myc-KRS and cultivated for 24 hr. The transfectants were pre-treated with LY294002 for 3 hr and then treated with laminin for 1 h. Myc-KRS was immunoprecipitated and co-precipitation of 67LR was determined by Western blotting. IgG was used as a control for immunoprecipitation. In FIG. 12, A549 cells were cultivated in the absence and presence of laminin and LY294002 as indicated. EPRS (glutamyl-prolyl-tRNA synthetase) was immunoprecipitated with its specific antibody (AbCam), and co-immunoprecipitation of KRS was determined by Western blotting (upper). The immune-depleted supernatant (ID) were subjected to Western blottingting with anti-KRS and -EPRS antibodies.
# The cells were lysed with 20 mM Tris-HCl (pH 7.4) buffer containing 150 mM NaCl, 0.5% TritonX-100, 0.1% SDS, and protease inhibitor. The protein extracts were incubated with normal IgG and protein G agarose for 2 hr and then centrifuged to remove nonspecific IgG binding proteins. […]
# [2] = test system: phosphorylation of KRS; test: Laminin-induced phosphorylation of Myc-KRS, immunoprecipitation and immunoblot with anti-p-Thr, -Ser, -Tyr antibodies; format: cell-based, human; details: Myc-KRS transfected A549 cells; laminin treatment; FIG. 10
# Method: as §1, with “IgG was used as a control for immunoprecipitation. In FIG. 12, A549 cells were cultivated in the absence and presence of laminin and LY294002 as indicated.” left out, “The immune-depleted supernatant (ID) were subjected to Western blottingting with anti-KRS and -EPRS antibodies.” left out
substance,measurement,setting,value
laminin: laminin (Engelbreth-Holm-Swarm murine sarcoma) from Sigma,membrane level of KRS and 67LR,[1],gradually increased
same,phosphorylated KRS at threonine and serine,[2],increased

# Source: patent US10139394B2, “Method for controlling cancer metastasis or cancer cell migration by modulating the cellular level of lysyl tRNA synthetase” (Medicinal Bioconvergence Research Center, priority 2008, dated 2018)
